Experimental data published in paper PMC10804683, “Identification of the pyridoxal 5′‐phosphate allosteric site in human pyridox(am)ine 5′‐phosphate oxidase” (Protein Science : A Publication of the Protein Society, 2024).
Residue numbers refer to the chain shown, from its start.

Tests used:
human PNPO wild type = biological target: T1, human PNPO wild type (Homo sapiens, UniProt Q9NVS9)
T1 sequence (Q9NVS9 1-261): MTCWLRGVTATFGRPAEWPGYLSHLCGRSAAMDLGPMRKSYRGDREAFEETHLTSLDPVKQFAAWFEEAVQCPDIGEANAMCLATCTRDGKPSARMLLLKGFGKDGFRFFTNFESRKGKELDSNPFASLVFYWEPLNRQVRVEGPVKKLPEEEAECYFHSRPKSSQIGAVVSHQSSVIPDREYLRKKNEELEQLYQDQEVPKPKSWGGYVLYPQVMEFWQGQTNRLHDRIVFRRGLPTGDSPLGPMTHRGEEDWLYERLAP

human PNPO F48A variant = biological target: T2, human PNPO F48A variant (Homo sapiens, UniProt Q9NVS9, F48A); test: PMP oxidation kinetics, F48A variant; conditions: 50 mM Tris–HCl pH 7.6, 37°C, 2 μM enzyme
T2 sequence (Q9NVS9 1-261 F48A): T1 sequence (Q9NVS9 1-261) with F48A

## Cc1ncc(COP(=O)(O)O)c(CN)c1O [PMP, pyridoxamine 5′‐phosphate]
Human PNPO wild type; 50 mM Tris–HCl pH 7.6, 37°C, 2 μM enzyme
  PMP oxidation kCAT: 0.135 ± 0.00283 s⁻¹
Human PNPO wild type; Tris–HCl pH 7.6, 37°C
  KM for PMP relative to KM for PNP: 25 fold
Human PNPO F48A variant
  PMP oxidation kCAT: 0.1785 ± 0.003 s⁻¹
